This note sets out measurements from US5378838A, “Benzodiazepine cholecystokinin antagonists” (Merck & Co., Inc., priority 1993, dated 1995).

Structures are written as SMILES. Read-outs that look alike come from different tables or passages of the source.

The target in one test is T1, CCK receptor (pancreas) (Rattus norvegicus, UniProt P30551).
T1 construct: The whole pancreas was dissected free of fat tissue and was homogenized; from tissue; host or cells: whole pancreas membranes of male Sprague-Dawley rats
T1 sequence (P30551 1-444): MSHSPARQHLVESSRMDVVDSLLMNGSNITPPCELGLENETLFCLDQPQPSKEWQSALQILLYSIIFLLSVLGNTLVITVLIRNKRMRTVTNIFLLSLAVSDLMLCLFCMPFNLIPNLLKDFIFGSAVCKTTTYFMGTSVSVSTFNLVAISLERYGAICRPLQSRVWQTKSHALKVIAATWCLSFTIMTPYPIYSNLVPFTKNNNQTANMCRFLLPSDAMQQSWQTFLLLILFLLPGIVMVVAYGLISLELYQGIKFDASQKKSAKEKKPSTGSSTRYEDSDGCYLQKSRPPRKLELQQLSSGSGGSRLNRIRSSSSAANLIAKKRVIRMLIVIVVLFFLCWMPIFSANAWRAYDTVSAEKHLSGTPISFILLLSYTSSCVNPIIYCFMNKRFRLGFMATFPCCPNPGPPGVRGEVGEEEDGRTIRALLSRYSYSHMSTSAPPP
The test can be described thus: CCK Receptor Binding (Pancreas), inhibition of 125I-CCK-8 binding. More on the design: species or system rat (male Sprague-Dawley). As to the method: 1. CCK Receptor Binding (Pancreas)
Male Sprague-Dawley rats (150-200 g) were sacrificed by decapitation. The whole pancreas was dissected free of fat tissue and was homogenized in 25 volumes of ice-cold 10 mM Hepes buffer with 0.1% soya bean trypsin inhibitor (pH 7.4 at 25° C.) with a Kinematica Polytron. The homogenates were centrifuged at 47,800 g for 10 min. Pellets were resuspended in 10 volumes of binding assay buffer (20 mM Hepes, 1 mM EGTA, 5 mM MgCl2, 150 mM NaCl, bacitracin 0.25 mg/ml, soya bean trypsin inhibitor 0.1 mg/ml, and bovine serum albumin 2 mg/ml, pH 6.5 at 25° C.) using a teflon homogenizer, 15 strokes at 500 rpm. The homogenate was further diluted in binding assay buffer to give a final concentration of 0.5 mg original wet weight/l ml buffer. […] All assays were run in duplicate. The reaction mixtures were incubated at 25° C. for 2 hours and the reaction terminated by rapid filtration (Brandell 24 well cell harvester) over Whatman GF/C filters, washing 3×4 mls with ice-cold 100 mM NaCl. The radioactivity on the filters was counted with a LKB gamma counter.
Drug displacement studies were performed with at least 10 concentrations of compounds of formula 1 and the IC50 values were determined by regression analysis.

A further test has as its target T2, CCK receptor (brain) (Cavia porcellus, UniProt H0VZC5).
T2 construct: the cortex was removed and homogenized in 25 mL ice-cold 0.32M sucrose; from tissue; host or cells: cortex P2 membranes of male Hartley guinea pigs
T2 sequence (H0VZC5 1-426): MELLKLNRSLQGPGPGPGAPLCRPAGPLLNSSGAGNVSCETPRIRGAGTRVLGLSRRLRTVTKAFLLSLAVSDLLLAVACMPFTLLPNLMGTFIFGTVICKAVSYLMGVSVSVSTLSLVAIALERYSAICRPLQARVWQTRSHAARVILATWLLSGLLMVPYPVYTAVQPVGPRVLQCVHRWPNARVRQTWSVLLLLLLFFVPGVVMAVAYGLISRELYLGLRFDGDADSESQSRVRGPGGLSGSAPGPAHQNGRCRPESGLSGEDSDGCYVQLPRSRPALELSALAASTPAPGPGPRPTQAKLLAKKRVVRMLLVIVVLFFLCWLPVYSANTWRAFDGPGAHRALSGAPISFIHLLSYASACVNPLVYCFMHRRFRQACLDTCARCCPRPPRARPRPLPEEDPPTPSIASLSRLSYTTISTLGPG
Put plainly: CCK Receptor Binding (Brain), inhibition of 125I-CCK-8 binding. Also on record: species or system guinea pig (male Hartley). The following applies: guinea pig cortex, 50 pM 125I-CCK-8, pH 6.5, 25° C., 2 hours.

Where [1] appears, read: read-out: IC50 125I-CCK Pancreas, rat pancreas, 50 pM 125I-CCK-8, pH 6.5, 25° C., 2 hours.
The mark [2] stands for this setting: rat pancreas, 50 pM 125I-CCK-8, pH 6.5, 25° C., 2 hours, read-out: IC50 125I-CCK Pancreas.

Protocol for CCK receptor (brain): CCK-8 sulphated was radiolabelled and the binding was performed according to the description for the pancreas method with minor modifications.
Male Hartley guinea pigs (300-500g) were sacrificed by decapitation and the cortex was removed and homogenized in 25 mL ice-cold 0.32M sucrose. The homogenates were centrifuged at 1000 g for 10 minutes and the resulting supernatant was recentrifuged at 20,000 g for 20 minutes. […] All assays were run in duplicate. The reaction mixtures were incubated at 25° C. for 2 hours and then the reaction was terminated on Whatman GF/C filters by rapid filtration (Brandell 24 well cell Harvester) with 3×5 ml washes of cold 100 mM NaCl. The radioactivity on the filters was then counted with a LKB gamma counter.
Drug displacement studies were performed with at least 10 concentrations of compounds of formula 1 and the IC50 values were determined by regression analysis. IC50 refers to the concentration of the compound required to inhibit 50% of specific binding of ^125 I-CCK-8.

Turning to `COC(=O)[C@H](Cc1cccc(NC(=O)N[C@@H]2N=C(c3ccccc3)c3ccccc3N(C)C2=O)c1)NC(=O)OC(C)(C)C` [Example 1, N-{(3R)-1,3-Dihydro-1-methyl-2-oxo-5-phenyl-1H-1,4-benzodiazepin-3-yl}-N'-{[3-((2S)-tertbutyloxycarbonylamino-2-methoxycarbonyl)ethylphenyl]urea}], the IC50 (usually the concentration at which inhibition is half-maximal) at CCK receptor (pancreas) was greater than 3000 nM; at CCK receptor (brain) it was 29.6 nM.

On to `COC(=O)[C@@H](N)Cc1cccc(NC(=O)N[C@@H]2N=C(c3ccccc3)c3ccccc3N(C)C2=O)c1` [Example 2, N-{(3R)-1,3-Dihydro-1-methyl-2-oxo-5-phenyl-1H-1,4-benzodiazepin-3-yl}-N'-{[3-((2S)-amino-2-methoxycarbonyl)ethylphenyl]-urea}], for which the IC50 on CCK receptor (pancreas) was greater than 3000 nM; at CCK receptor (brain), 114 nM.

On to `CN1C(=O)[C@H](NC(=O)Nc2cccc(C[C@H](N)C(=O)O)c2)N=C(c2ccccc2)c2ccccc21` [Example 3, N-{(3R)-1,3-Dihydro-1-methyl-2-oxo-5-phenyl-1H-1,4-benzodiazepin-3-yl}-N'-{[3-((2S)-amino-2-carboxy)ethylphenyl]-urea}], for which the results for the IC50 at CCK receptor (pancreas) (setting [1]) and on CCK receptor (brain) were greater than 3000 nM and 61.3 nM, respectively.

As for `COC(=O)[C@H](Cc1cccc(NC(=O)N[C@@H]2N=C(C3CCCCC3)c3ccccc3N(C)C2=O)c1)NC(=O)OC(C)(C)C` [Example 4, N-{(3R)-1,3-Dihydro-1-methyl-2-oxo-5-cyclohexyl-1H-1,4-benzodiazepin-3-yl}-N'-{[3-((2S)-tert-butyloxycarbonylamino-2-methoxycarbonyl)ethylphenyl]-urea}], the IC50 at CCK receptor (pancreas) (setting [2]) turned out to be 961 nM; on CCK receptor (brain), 3.9 nM. With `COC(=O)[C@@H](N)Cc1cccc(NC(=O)N[C@@H]2N=C(C3CCCCC3)c3ccccc3N(C)C2=O)c1` [Example 5, N-{(3R)-1,3-Dihydro-1-methyl-2-oxo-5-cyclohexyl-1H-1,4-benzodiazepin-3-yl}-N'-{[3-((2S)-amino-2-methoxycarbonyl)ethylphenyl]-urea}], the IC50 at CCK receptor (pancreas) (setting [2]) is 924 nM; at CCK receptor (brain) it was 9.2 nM. For `CN1C(=O)[C@H](NC(=O)Nc2cccc(C[C@H](N)C(=O)O)c2)N=C(C2CCCCC2)c2ccccc21` [Example 6, N-{(3R)-1,3-Dihydro-1-methyl-2-oxo-5-cyclohexyl-1H-1,4-benzodiazepin-3-yl}-N'-{[3-((2S )amino-2-carboxy)ethylphenyl]-urea}], in that order: 1790 nM and 1.1 nM.

On to `COC(=O)[C@@H](NC(=O)OC(C)(C)C)c1cccc(NC(=O)N[C@@H]2N=C(c3ccccc3)c3ccccc3N(C)C2=O)c1` [Example 7, N-{(3R)-1,3-Dihydro-1-methyl-2-oxo-5-phenyl-1H-1,4-benzodiazepin-3-yl}-N'-{[3-((1S)-tert-butyloxycarbonylamino-1-methoxycarbonyl)methylphenyl]-urea}], for which the IC50 on CCK receptor (pancreas) is greater than 3000 nM; at CCK receptor (brain) it was 1980 nM. For `COC(=O)[C@@H](N)c1cccc(NC(=O)N[C@@H]2N=C(c3ccccc3)c3ccccc3N(C)C2=O)c1` [Example 8, N-{(3R)-1,3-Dihydro-1-methyl-2-oxo-5-phenyl-1H-1,4-benzodiazepin-3-yl}-N'-{[3-((1S )-amino-1-methoxycarbonyl)methylphenyl]-urea}] the same measures were greater than 3000 nM and 958 nM. For `CN1C(=O)[C@H](NC(=O)Nc2cccc([C@H](N)C(=O)O)c2)N=C(c2ccccc2)c2ccccc21` [Example 9, N-{(3R)-1,3-Dihydro-1-methyl-2-oxo-5-phenyl-1H-1,4-benzodiazepin-3-yl}-N'-{[3-((1S)-amino-1-carboxy)methylphenyl]-urea}], in that order: greater than 3000 nM and 1330 nM. For `CN1C(=O)[C@H](NC(=O)Nc2cccc([C@@H](N)C(=O)O)c2)N=C(c2ccccc2)c2ccccc21` [Example 10, N-{(3R)-1,3-Dihydro-1-methyl-2-oxo-5-phenyl-1H-1,4-benzodiazepin-3-yl}-N'-{[3-((1R)-amino-1-carboxy)methylphenyl]-urea}] the same measures were greater than 3000 nM and 3590 nM.

Take `COC(=O)CC(NC(=O)OC(C)(C)C)c1cccc(NC(=O)N[C@@H]2N=C(c3ccccc3)c3ccccc3N(C)C2=O)c1` (stereo partly drawn) [Example 11, N-{(3R)-1,3-Dihydro-1-methyl-2-oxo-5-phenyl-1 H-1,4-benzodiazepin-3-yl}-N'-{[3-((1R,S)-tert-butyloxycarbonylamino-2-methoxycarbonyl)ethylphenyl]-urea}]: the IC50 is greater than 3000 nM at CCK receptor (pancreas) and 386 nM at CCK receptor (brain). In the case of `COC(=O)CC(N)c1cccc(NC(=O)N[C@@H]2N=C(c3ccccc3)c3ccccc3N(C)C2=O)c1` (stereo partly drawn) [Example 12, N-{(3R)-1,3-Dihydro-1-methyl-2-oxo-5-phenyl-1H-1,4-benzodiazepin-3-yl}-N,- {[3-((1R,S)-amino-2-methoxycarbonyl)ethylphenyl]-urea}], the IC50 on CCK receptor (brain) was greater than 3000 nM. As to `CN1C(=O)[C@H](NC(=O)Nc2cccc(C(N)CC(=O)O)c2)N=C(c2ccccc2)c2ccccc21` (stereo partly drawn) [Example 13, N-{(3R)-1,3-Dihydro-1-methyl-2-oxo-5-phenyl-1H-1,4-benzodiazepin-3-yl}-N'-{[3-((1R,S)-amino-2-carboxy)ethylphenyl]-urea}], the IC50 on CCK receptor (pancreas) and on CCK receptor (brain) was greater than 3000 nM each time. On to `COC(=O)C1(NC(=O)OC(C)(C)C)CCc2cccc(NC(=O)N[C@@H]3N=C(c4ccccc4)c4ccccc4N(C)C3=O)c2C1` (stereo partly drawn) [Example 14, N-{(3R)-1,3-Dihydro-1-methyl-2-oxo-5-phenyl-1H-1,4-benzodiazepin-3-yl}-N'-{[8-(methyl-2(R,S)-tert-butyloxycarbonylamino-1,2,3,4-tetrahydro-2-naphthoate)]-urea}], for which the IC50 on CCK receptor (pancreas) (setting [1]) was greater than 3000 nM; on CCK receptor (brain), 647 nM.

`COC(=O)C1(NC(=O)OC(C)(C)C)CCc2ccc(NC(=O)N[C@@H]3N=C(c4ccccc4)c4ccccc4N(C)C3=O)cc2C1` (stereo partly drawn) [Example 15, N-{(3R)-1,3-Dihydro-1-methyl-2-oxo-5-phenyl-1H-1,4-benzodiazepin-3-yl}-N'-{[7-(methyl-2-(R,S)-tert-butyloxycarbonylamino-1,2,3,4-tetrahydro-2-naphthoate)]-urea}]: the figures for the IC50 at CCK receptor (pancreas) (setting [1]) and on CCK receptor (brain) were greater than 3000 nM and 126 nM, respectively. As for `COC(=O)C1(N)CCc2ccc(NC(=O)N[C@@H]3N=C(c4ccccc4)c4ccccc4N(C)C3=O)cc2C1` (stereo partly drawn) [Example 16, N-{(3R)-1,3-Dihydro-1-methyl-2-oxo-5-phenyl-1H-1,4-benzodiazepin-3-yl}-N'-{[7-(methyl-2-(R,S)-amino-1,2,3,4-tetrahydro-2-naphthoate)]-urea}], the IC50 was greater than 3000 nM at CCK receptor (pancreas) and 148 nM at CCK receptor (brain).

As to `CN1C(=O)[C@H](NC(=O)Nc2ccc3c(c2)CC(N)(C(=O)O)CC3)N=C(c2ccccc2)c2ccccc21` (stereo partly drawn) [Example 17, N-{(3R)-1,3-Dihydro-1-methyl-2-oxo-5-phenyl-1H-1,4-benzodiazepin-3-yl}-N'-{[7-(2-(R,S)amino-1,2,3,4-tetrahydro-2-naphthoic acid)]-urea}], the IC50 at CCK receptor (pancreas) was greater than 3000 nM; on CCK receptor (brain), 28.4 nM. `COC(=O)C1(NC(=O)OC(C)(C)C)CCc2cc(NC(=O)N[C@@H]3N=C(c4ccccc4)c4ccccc4N(C)C3=O)ccc2C1` (stereo partly drawn) [Example 18, N-{(3R)-1,3-Dihydro-1-methyl-2-oxo-5-phenyl-1H-1,4-benzodiazepin-3-yl}-N'-{[6-(methyl-2-(R,S)-tert-butyloxycarbonylamino-1,2,3,4-tetrahydro-2-naphthoate)]-urea}]: the IC50 on CCK receptor (brain) is greater than 3000 nM.

On to `COC(=O)C1(N)CCc2cc(NC(=O)N[C@@H]3N=C(c4ccccc4)c4ccccc4N(C)C3=O)ccc2C1` (stereo partly drawn) [Example 19], for which the IC50 at CCK receptor (pancreas) and at CCK receptor (brain) was greater than 3000 nM throughout.
